Laboratory results reported in US10857154B2, “Pharmaceutical composition containing keratin 8 phosphorylation inhibitor for preventing or treating macular degeneration, and method for screening macular degeneration medicine” (priority 2016, dated 2020).
Where two headings read alike, the source gives them in different places.

Experiments:
[1] = tested on: keratin 8 (K8) phosphorylation; assay: Western blotting of P-ERK1/2 and P-K8 in paraquat-treated retinal pigment epithelial cells; type: cell-based, human
Procedure: In the bar graph analyzed from the image of western blotting, the expression levels of P-ERK and P-K8 were calculated (FIG. 2B).
In the bar graph analyzed from the image of western blotting, the expression levels of P-ERK and P-K8 were calculated (FIG. 4A).
(§1) The same procedures as in Example 3 were performed, and 10 μM gefitinib was used in lieu of 50 nM trametinib.

[2] = tested on: APRE-19 cells and human-tissue-derived RPE cells; assay: P-K8 immunostaining: reorganization of K8 around the nucleus under paraquat oxidative stress; type: cell-based
Description: The ARPE-19 cells are cell lines that have been genetically engineered for infinite proliferation for experimental use. However, as the human-tissue-derived RPE cells were obtained by culturing RPE tissue isolated from the human eye without any genetic engineering they were used for experiments under conditions similar to those of human RPE.
Thereafter, P-K8 (green fluorescence) of the cells was immunostained (Abcam; ab32579). The nucleus was stained (Invitrogen; T3605) using TOPRO-3 (blue fluorescence) (FIG. 2C).
P-K8 (green fluorescence) of the cells was immunostained (FIG. 4B).
as §1

[3] = tested on: APRE-19 cells and human-tissue-derived RPE cells; assay: E-cadherin / vimentin immunostaining: epithelial-mesenchymal transition under paraquat oxidative stress; type: cell-based; conditions: for E-cadherin expression / vimentin filaments: APRE-19 and human-tissue-derived RPE cells
Procedure: E-cadherin (green fluorescence) and vimentin (red fluorescence) in the cells were immunostained (cell signaling; 7832s). The nucleus was stained using TOPRO-3 (blue fluorescence) (FIG. 3A).
Thereafter, E-cadherin (green fluorescence) and vimentin (red fluorescence) in the cells were immunostained. The nucleus was visualized using TOPRO-3 (blue fluorescence) (FIG. 4C).
as §1

[4] = tested on: ARPE-19 cells; assay: Cell motility using a Transwell insert; type: cell-based, human; conditions: 400 μM paraquat and 20 μM PD98059 for 36 hr, FIG. 3B
Procedure: Also, the cell motility was analyzed using a Transwell insert in ARPE-19 cells selectively treated with 400 μM paraquat and 20 μM PD98059 for 36 hr. As the migrated cells were stained with methylene blue it was confirmed by checking an image (FIG. 3B).

[5] = tested on: mouse retinal cells; assay: NaIO3-induced retinal degeneration in mouse, ZO-1 immunohistochemical analysis; type: in vivo; conditions: 20 mg/kg NaIO3 intravenously, 10 mg/kg PD98059, sacrificed 2 weeks after administration, FIG. 3C
Procedure: 7- to 9-week-old mouse retinal cells were subjected to immunohistochemical analysis (Abcam; ab59720) for a tight junction marker ZO-1 (green fluorescence). A saline-treated group was a control group with intravenous administration of 0.9% NaCl. A mouse group administered intravenously with 20 mg/kg of NaIO3 was selectively treated with 10 mg/kg of PD98059. Animal groups were sacrificed 2 weeks after intravenous administration. The fluorescence images were obtained through a confocal microscope (FIG. 3C).

[6] = APRE-19 cells, 400 μM paraquat 24 hr, then 20 μM PD98059 24 hr, FIG. 2B
[7] = 400 μM paraquat and 20 μM PD98059 for 48 hr, FIG. 3A
[8] = 400 μM paraquat and 10 μM gefitinib for 48 hr, FIG. 5C

SMILES	K8 phosphorylation due to oxidative stress (P-ERK and P-K8 expression levels) [1, 6]	expression of LC3 I/II, the autophagy marker [1, 6]	effect of inhibiting K8 phosphorylation due to oxidative stress (P-K8 expression level) ([1]; APRE-19 cells, 400 μM paraquat 24 hr, then 20 μM PD98059 24 hr, compared to 10 μM SP600125, FIG. 2A)	reorganization of K8 around the nucleus ([2]; APRE-19 and human-tissue-derived RPE cells, 400 μM paraquat and 20 μM PD98059 for 36 hr, FIG. 2C)	epithelial-mesenchymal transition [3, 7]	E-cadherin expression [3, 7]	vimentin filaments [3, 7]	cell motility [4]	degeneration of retinal cells (tight junction marker ZO-1) [5]	K8 phosphorylation due to oxidative stress (P-ERK and P-K8 expression levels) [1]	reorganization of K8 around the nucleus ([2]; APRE-19 cells, 400 μM paraquat and 10 μM gefitinib for 36 hr, FIG. 5B)	epithelial-mesenchymal transition [3, 8]	E-cadherin expression [3, 8]	vimentin filaments [3, 8]
COc1cccc(-c2cc(=O)c3ccccc3o2)c1N [PD98059]	inhibited K8 phosphorylation	not involved in the expression of LC3 I/II	superior	inhibited reorganization of K8 around the nucleus	reduce epithelial-mesenchymal transition	recovered E-cadherin lost	inhibited an increase in vimentin filaments	reduced increased cell motility	restored the degeneration of retinal cells	–	–	–	–	–
COc1cc2ncnc(Nc3ccc(F)c(Cl)c3)c2cc1OCCCN1CCOCC1 [gefitinib]	–	–	–	–	–	–	–	–	–	inhibited phosphorylation of K8	inhibited reorganization of K8 around the nucleus	reduce epithelial-mesenchymal transition	recovered E-cadherin lost	inhibited the increase in vimentin filaments
